# Laboratory results published in patent publication US9090593B2, “Bicyclic compounds as Pim inhibitors” (AMGEN INC., priority 2010, dated 2015).
# Structures can show the parent of a compound that is named as a salt. Where two headings read alike, the source gives them in different places.
# What was measured:
# [1] = target: T1, full length recombinant Pim-1 protein (Homo sapiens, UniProt P11309); assay: Pim-1 enzyme assay (HTRF, phosphorylation of biotinylated-BAD (S112) peptide); format: biochemical; details: read-out: Pim_1_IC50
# T1 construct: by full length recombinant Pim-1, Pim-2, or Pim-3 protein; hexahistidine tag followed by a thrombin cleavage site (N); made in house; host or cells: Sf9 (baculovirus) or E. coli (pET28)
# In short: (§1)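 HTRF read-out: Eu-labelled anti-phospho-BAD (S112) antibody plus streptavidin-APC detect phosphorylated biotin-BAD peptide. Enzymes were full-length recombinant human Pim-1 and Pim-2; buffer 60 mM Hepes pH 7.0, 0.05% BSA, 2 mM DTT; reactions quenched with 3 mM EDTA. Percent-of-control data fitted to a 4-parameter logistic for IC50.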
# [2] = target: T2, full length recombinant Pim-2 protein (Homo sapiens, UniProt Q9P1W9); assay: Pim-2 enzyme assay (HTRF, phosphorylation of biotinylated-BAD (S112) peptide); format: biochemical; details: read-out: Pim2_IC50
# T2 construct: by full length recombinant Pim-1, Pim-2, or Pim-3 protein; hexahistidine tag followed by a thrombin cleavage site (N); made in house; host or cells: Sf9 (baculovirus) or E. coli (pET28)
# In short: as §1
# [3] = target: T3, Pim-1 stably transfected into the U2OS human osteogenic sarcoma line (Homo sapiens, UniProt P11309); assay: Pim cell assay, phospho-BAD normalized against total BAD, U2OS stably transfected with Pim-1; format: cell-based
# T3 construct: expressed in transfected cells; host or cells: U2OS human osteogenic sarcoma line
# Experimental: (§2) The cell lines used in the assay were generated by the stable transfection of either Pim-1 or Pim-2 into the U2OS human osteogenic sarcoma line. The assay for determination of the Pim activity in the engineered U2OS cell lines measures levels of phospho-BAD normalized against total BAD protein levels. It was conducted as follows:
# (§3) The adherent cells were dissociated from the flasks using non-enzymatic cell dissociation solution (Sigma # C5914). […] The cells were then incubated overnight at 37° C., 5% CO2.
# (§4) In addition to the 10-point dosing curve of the test compound, DMSO alone was run as the high control.
# (§5) This dilution in DMSO was then diluted again into cell growth medium. Aliquots (12 uL) of the compound diluted in growth medium were then transferred to the appropriate wells of the 96-well plates containing cells to yield a final DMSO concentration of 0.3%.
# (§6) The cell plates containing lysis buffer were then immediately stored at −70° C.
# (§7) These prepared lysates were then assayed for phospho and total BAD according to the manufacturer's protocols (Meso Scale Diagnostics, Cat# K15103C-3 & # K15103D-3). The plates were read on the MSD Sector Imager 6000, and results were calculated according to the assay protocols ((% Phosphoprotein=((2×Phospho signal)/(Phospho signal+Total signal))×100)).
# [4] = target: T4, Pim-2 stably transfected into the U2OS human osteogenic sarcoma line (Homo sapiens, UniProt Q9P1W9); assay: Pim cell assay, phospho-BAD normalized against total BAD, U2OS stably transfected with Pim-2; format: cell-based
# T4 construct: expressed in transfected cells; host or cells: U2OS human osteogenic sarcoma line
# Experimental: as §2, §3, §4, §5, §6, §7
# [5] = U2OS cells stably transfected with Pim-1, phospho-BAD, high dose […], read-out: Pim1_Cell_IC50
# [6] = U2OS cells stably transfected with Pim-2, phospho-BAD, high dose […], read-out: Pim2_Cell_IC50
# [7] = U2OS stably transfected with Pim-1, phospho-BAD normalized against total BAD, 29 min incubation, read-out: Pim1_Cell_IC50_
# [8] = U2OS stably transfected with Pim-2, phospho-BAD normalized against total BAD, 29 min incubation, read-out: Pim2_Cell_IC50_
# T1 sequence (P11309 whole entry): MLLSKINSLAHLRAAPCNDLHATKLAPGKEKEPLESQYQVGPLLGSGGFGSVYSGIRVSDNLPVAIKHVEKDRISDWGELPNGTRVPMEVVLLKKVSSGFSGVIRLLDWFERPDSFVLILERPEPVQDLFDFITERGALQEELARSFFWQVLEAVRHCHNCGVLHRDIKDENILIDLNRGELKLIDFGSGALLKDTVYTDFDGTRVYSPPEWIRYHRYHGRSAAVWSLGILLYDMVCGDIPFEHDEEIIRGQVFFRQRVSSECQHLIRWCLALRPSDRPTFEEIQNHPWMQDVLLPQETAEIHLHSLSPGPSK
# T3 sequence (P11309 whole entry): as above
# T2 sequence (Q9P1W9 whole entry): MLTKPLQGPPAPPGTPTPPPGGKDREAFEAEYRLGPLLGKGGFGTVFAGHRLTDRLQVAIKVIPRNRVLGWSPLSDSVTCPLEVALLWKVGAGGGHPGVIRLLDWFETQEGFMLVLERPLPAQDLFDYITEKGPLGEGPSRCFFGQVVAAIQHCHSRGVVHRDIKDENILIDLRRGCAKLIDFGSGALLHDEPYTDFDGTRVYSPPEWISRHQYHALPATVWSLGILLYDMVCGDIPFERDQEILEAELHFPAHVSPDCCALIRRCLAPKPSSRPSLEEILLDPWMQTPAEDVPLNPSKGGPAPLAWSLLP
# T4 sequence (Q9P1W9 whole entry): as above
SMILES,"IC50 ([1]; enzyme assay, Pim-1) [nM]","IC50 ([2]; enzyme assay, Pim-2) [nM]","IC50 [3, 5] [nM]","IC50 [4, 6] [nM]",IC50 [1] [nM],IC50 [2] [nM],"IC50 [3, 7] [nM]","IC50 [4, 8] [nM]"
"NC1CCN(c2cncc(-c3n[nH]c4ccc(-c5cnc6[nH]ccc6c5)cc34)n2)CC1 [Example 57, 1-(6-(5-(1H-pyrrolo[2,3-b]pyridin-5-yl)-1H-indazol-3-yl)-2-pyrazinyl)-4-piperidinamine]",1,10,605,> 31600,,,,
"Nc1cncc(-c2ccc3[nH]nc(-c4cncc(N5CCC(N)CC5)n4)c3c2)c1 [Example 73, 5-(3-(6-(4-amino-1-piperidinyl)-2-pyrazinyl)-1H-indazol-5-yl)-3-pyridinamine]",1,3,885,> 31600,,,,
"COc1cncc(-c2ccc3[nH]nc(-c4cncc(N5CCC(N)CC5)n4)c3c2)c1 [Example 79, 1-(6-(5-(5-methoxy-3-pyridinyl)-1H-indazol-3-yl)-2-pyrazinyl)-4-piperidinamine]",1,9,182,3890,,,,
"NC1CCN(c2cncc(-c3n[nH]c4ccc(-c5cccnc5)cc34)n2)CC1 [Example 82, 1-(6-(5-(3-pyridinyl)-1H-indazol-3-yl)-2-pyrazinyl)-4-piperidinamine]",1,7,171,7810,,,,
"c1cc2[nH]cc(-c3cncc(C4CC4)n3)c2cc1-c1cncc(C2CC2)n1 [Example 245, 3,5-bis(6-cyclopropyl-2-pyrazinyl)-1H-indole]",,,,,28,345,3640,> 31600
"NC1CCN(c2nc(-c3c[nH]c4ccc(-c5c(F)cccc5F)cc34)cc(=O)[nH]2)CC1 [Example 277, 2-(4-aminopiperidin-1-yl)-6-(5-(2,6-difluorophenyl)-1H-indol-3-yl)pyrimidin-4(3H)-one]",,,,,1,2,2470,> 31600
"CC(C)Nc1nc(-c2c[nH]c3ccc(-c4cncc(C5CC5)n4)cc23)cc(=O)[nH]1 [Example 287, 6-(5-(6-cyclopropylpyrazin-2-yl)-1H-indol-3-yl)-2-(isopropylamino) pyrimidin-4(3H)-one]",,,,,6,87,1310,> 31600
COc1cc(-c2ccc3[nH]cc(-c4cncc(O[C@@H]5CCCNC5)n4)c3c2)c(F)cn1 [Example 290],,,,,4,11,313,6530

# Continued, values first:
"IC50 ([1]; enzyme assay, Pim-1) [nM]","IC50 ([2]; enzyme assay, Pim-2) [nM]","IC50 [3, 5] [nM]","IC50 [4, 6] [nM]",IC50 [1] [nM],IC50 [2] [nM],"IC50 [3, 7] [nM]","IC50 [4, 8] [nM]",SMILES
,,,,5,108,369,31500,"c1cc(-c2ccc3[nH]nc(-c4cncc(O[C@@H]5CCCNC5)n4)c3c2)nc(NC2CC2)n1 [Example 242, N-cyclopropyl-4-(3-(6-((3R)-3-piperidinyloxy)-2-pyrazinyl)-1H-indazol-5-yl)-2-pyrimidinamine]"
,,,,1,3,169,> 10000,"c1cc2[nH]nc(-c3cncc(C4CC4)n3)c2cc1-c1cncc(C2CC2)n1 [Example 244, 3,5-bis(6-cyclopropyl-2-pyrazinyl)-1H-indazole]"
,,,,4,8,180,5760,"C1=C(c2ccc3[nH]nc(-c4cncc(O[C@H]5CNCCC56CC6)n4)c3c2)CCOC1 [Example 263, 3-(6-((4R)-6-azaspiro[25]oct-4-yloxy)-2-pyrazinyl)-5-(3,6-dihydro-2H-pyran-4-yl)-1H-indazole 2,2,2-trifluoroacetate salt]"
,,,,6,15,276,> 10000,"c1cc2[nH]nc(-c3cncc(O[C@H]4CNCCC45CC5)n3)c2cc1C1CCOCC1 [Example 264, 3-(6-((4R)-6-azaspiro[25]oct-4-yloxy)-2-pyrazinyl)-5-(tetrahydro-2H-pyran-4-yl)-1H-indazole-2,2,2-trifluoroacetate]"
